Values quoted from earlier work in US5672605A, “Macrolide immunomodulators” (Abbott Laboratories, priority 1995, dated 1997).

Tests used:
[1] = tested on: FKBP-12
[2] = tested on: Candida albicans; conditions: particularly against Candida albicans, both in vitro and in vivo
[3] = tested on: IgE-like antibodies
[4] = rapamycin alone or in combination with picibanil
[5] = tested on: adjuvant arthritis model, a model for rheumatoid arthritis; conditions: in vivo
[6] = tested on: experimental allergic encephalomyelitis model, a model for multiple sclerosis; conditions: in vivo

Compound	binding to FKBP-12, in words [1]	antifungal activity, in words [2]	inhibition of the formation of IgE-like antibodies [3]	antitumor activity, in words [4]	immunosuppressant effect in adjuvant arthritis model [5]	immunosuppressant effect in experimental allergic encephalomyelitis model [6]
C=CC[C@@H]1/C=C(\C)C[C@H](C)C[C@H](OC)[C@H]2O[C@@](O)(C(=O)C(=O)N3CCCC[C@H]3C(=O)O[C@H](/C(C)=C/[C@@H]3CC[C@@H](O)[C@H](OC)C3)[C@H](C)[C@@H](O)CC1=O)[C@H](C)C[C@@H]2OC [FK-506]	binds to FKBP-12					
CO[C@H]1C[C@@H]2CC[C@@H](C)[C@@](O)(O2)C(=O)C(=O)N2CCCC[C@H]2C(=O)O[C@H]([C@H](C)C[C@@H]2CC[C@@H](O)[C@H](OC)C2)CC(=O)[C@H](C)/C=C(\C)[C@@H](O)[C@@H](OC)C(=O)[C@H](C)C[C@H](C)/C=C/C=C/C=C/1C [rapamycin]	binds to FKBP-12	antifungal activity	effectively inhibit the formation of IgE-like antibodies	antitumor activity	effective as an immunosuppressant	effective as an immunosuppressant
